Results published in US8697140B2, “Virucidal disinfectant” (priority 2005, dated 2014).
Several values for one entry are separate records, joined by “and”; a condition that tells them apart may be missing. Equal values may be shown once.

What was measured:
[1] = test system: poliovirus (polio vaccination strain type I, strain LSc-2ab)
[2] = test system: poliovirus; settings: cited from earlier work

For `C=O` [formaldehyde solution, formaldehyde], the “Reduction of poliovirus titer” value [1] was 1.25 log10 steps and 2.13 log10 steps.
For `O=P(O)(O)O` [phosphoric acid], the Effectiveness against poliovirus [2] is given as “ineffective”.
